Consider eleven compounds from PMC3677030 (ChemMedChem, 2012).

Read-outs that look alike come from different tables or passages of the source. A value given as a limit tells only on which side of the number the result lay.

The test system of test [1] is insulin-like growth factor receptor 1. The settings on record: cited from earlier work.
Test [2] addresses T1, EphA2-ephrin-A1 interaction (EphA2-Fc ectodomain) (Mus musculus, UniProt Q03145). The settings on record: read-out: Ki, competitive antagonist of the EphA2 receptor; earlier work; cited from earlier work.
Test [3] has as its target T2, EGF receptor (Homo sapiens, UniProt P00533). The settings on record: cited from earlier work.
The subject of the next test is insulin receptor. Conditions: cited from earlier work.
In a further test the test system is VEGF receptor. Conditions: cited from earlier work.
In test [4] the target is T1, EphA2-ephrin-A1 interaction (EphA2-Fc ectodomain). The test is classed as binding. Conditions: for Activity in EphA2-ephrin-A1 binding assay, in words: tested starting from 200 μM; for Schild plot slope: slope between 0.8 and 1.2 indicates competitive binding.
The target in test [5] is EphA2 receptor (Mus musculus, UniProt Q03145). The test can be described thus: Surface plasmon resonance. Format: binding. The settings on record: for Kd: SPR. A general note: In SPR one partner is held on a chip, and binding of the other changes the refractive index at the surface.
EphA2 receptor (Mus musculus, UniProt Q03145), sequence (Q03145 26-538 limits assumed): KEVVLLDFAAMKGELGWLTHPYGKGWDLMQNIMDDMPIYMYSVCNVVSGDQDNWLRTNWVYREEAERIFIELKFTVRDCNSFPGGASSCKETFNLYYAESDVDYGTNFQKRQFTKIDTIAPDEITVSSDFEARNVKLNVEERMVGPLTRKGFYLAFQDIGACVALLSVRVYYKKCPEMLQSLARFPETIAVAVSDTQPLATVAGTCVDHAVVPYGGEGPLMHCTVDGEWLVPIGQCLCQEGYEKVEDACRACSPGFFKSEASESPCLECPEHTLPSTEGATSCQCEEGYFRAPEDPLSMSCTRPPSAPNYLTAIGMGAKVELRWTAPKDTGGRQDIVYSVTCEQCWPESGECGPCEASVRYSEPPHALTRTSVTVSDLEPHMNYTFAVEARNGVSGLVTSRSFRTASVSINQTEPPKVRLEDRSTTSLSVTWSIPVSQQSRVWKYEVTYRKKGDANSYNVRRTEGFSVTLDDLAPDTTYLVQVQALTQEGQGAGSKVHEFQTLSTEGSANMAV
Another test deals with T3, EphB4 receptor (Homo sapiens, UniProt P54760).
T3 sequence (P54760 16-987): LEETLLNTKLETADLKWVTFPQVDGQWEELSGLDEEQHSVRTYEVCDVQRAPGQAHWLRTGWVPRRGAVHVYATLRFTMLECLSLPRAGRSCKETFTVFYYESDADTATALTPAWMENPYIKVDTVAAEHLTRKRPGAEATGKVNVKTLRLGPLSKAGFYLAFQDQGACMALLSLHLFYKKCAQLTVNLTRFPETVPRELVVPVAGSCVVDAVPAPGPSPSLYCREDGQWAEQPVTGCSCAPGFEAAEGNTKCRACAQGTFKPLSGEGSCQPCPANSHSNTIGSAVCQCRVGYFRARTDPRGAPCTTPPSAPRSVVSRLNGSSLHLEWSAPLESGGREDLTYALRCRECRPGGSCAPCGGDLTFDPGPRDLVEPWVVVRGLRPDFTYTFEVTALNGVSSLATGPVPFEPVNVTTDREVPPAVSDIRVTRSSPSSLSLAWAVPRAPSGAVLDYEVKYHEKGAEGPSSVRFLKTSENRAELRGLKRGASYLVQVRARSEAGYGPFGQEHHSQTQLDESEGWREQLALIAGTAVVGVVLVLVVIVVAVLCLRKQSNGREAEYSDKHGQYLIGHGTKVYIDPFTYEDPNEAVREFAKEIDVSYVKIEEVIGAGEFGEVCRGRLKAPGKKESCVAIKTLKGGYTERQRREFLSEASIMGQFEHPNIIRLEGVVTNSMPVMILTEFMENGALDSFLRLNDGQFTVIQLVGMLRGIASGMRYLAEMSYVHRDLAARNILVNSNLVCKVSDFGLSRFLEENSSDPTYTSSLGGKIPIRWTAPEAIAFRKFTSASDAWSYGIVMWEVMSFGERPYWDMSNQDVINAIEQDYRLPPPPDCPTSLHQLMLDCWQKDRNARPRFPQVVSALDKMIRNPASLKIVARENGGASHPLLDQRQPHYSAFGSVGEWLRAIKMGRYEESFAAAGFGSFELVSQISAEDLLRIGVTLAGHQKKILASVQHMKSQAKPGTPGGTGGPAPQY
As to the kind of experiment: EphB4 phosphorylation induced by ephrin-B2-Fc in T47D cells. Format: cell-based. Conditions: no ephrin, data not shown.

The target of test [6] is T2, EGF receptor. As to the kind of experiment: EGF receptor phosphorylation induced by EGF in PC3 cells. Format: cell-based. Conditions: up to 100 μM, 30 ng/ml EGF.
In test [7] the test system is EphA receptors (vs EphB receptors). Format: binding. The settings on record: compared with lithocholic acid.
In test [8] the target is T4, recombinant human EphA2 kinase domain (Homo sapiens, UniProt P29317).
T4 sequence (P29317 613-875 limits assumed): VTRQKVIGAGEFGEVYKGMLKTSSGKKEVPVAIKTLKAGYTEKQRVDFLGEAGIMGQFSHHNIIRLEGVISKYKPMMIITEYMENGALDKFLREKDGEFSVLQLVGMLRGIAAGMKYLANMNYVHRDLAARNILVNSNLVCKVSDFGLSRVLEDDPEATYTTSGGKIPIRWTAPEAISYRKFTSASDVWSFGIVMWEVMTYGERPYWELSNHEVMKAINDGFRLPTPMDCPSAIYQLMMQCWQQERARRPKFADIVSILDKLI
The test can be described thus: EphA2 kinase assay. Format: biochemical. The settings on record: 100 μM, 30 minutes.

In test [9] the target is EphA2 receptor (Homo sapiens, UniProt P29317). As to the kind of experiment: EphA2 phosphorylation induced by ephrin-A1-Fc in PC3 cells. Format: cell-based. The settings on record: no ephrin, data not shown.
EphA2 receptor (Homo sapiens, UniProt P29317), sequence (P29317 24-976): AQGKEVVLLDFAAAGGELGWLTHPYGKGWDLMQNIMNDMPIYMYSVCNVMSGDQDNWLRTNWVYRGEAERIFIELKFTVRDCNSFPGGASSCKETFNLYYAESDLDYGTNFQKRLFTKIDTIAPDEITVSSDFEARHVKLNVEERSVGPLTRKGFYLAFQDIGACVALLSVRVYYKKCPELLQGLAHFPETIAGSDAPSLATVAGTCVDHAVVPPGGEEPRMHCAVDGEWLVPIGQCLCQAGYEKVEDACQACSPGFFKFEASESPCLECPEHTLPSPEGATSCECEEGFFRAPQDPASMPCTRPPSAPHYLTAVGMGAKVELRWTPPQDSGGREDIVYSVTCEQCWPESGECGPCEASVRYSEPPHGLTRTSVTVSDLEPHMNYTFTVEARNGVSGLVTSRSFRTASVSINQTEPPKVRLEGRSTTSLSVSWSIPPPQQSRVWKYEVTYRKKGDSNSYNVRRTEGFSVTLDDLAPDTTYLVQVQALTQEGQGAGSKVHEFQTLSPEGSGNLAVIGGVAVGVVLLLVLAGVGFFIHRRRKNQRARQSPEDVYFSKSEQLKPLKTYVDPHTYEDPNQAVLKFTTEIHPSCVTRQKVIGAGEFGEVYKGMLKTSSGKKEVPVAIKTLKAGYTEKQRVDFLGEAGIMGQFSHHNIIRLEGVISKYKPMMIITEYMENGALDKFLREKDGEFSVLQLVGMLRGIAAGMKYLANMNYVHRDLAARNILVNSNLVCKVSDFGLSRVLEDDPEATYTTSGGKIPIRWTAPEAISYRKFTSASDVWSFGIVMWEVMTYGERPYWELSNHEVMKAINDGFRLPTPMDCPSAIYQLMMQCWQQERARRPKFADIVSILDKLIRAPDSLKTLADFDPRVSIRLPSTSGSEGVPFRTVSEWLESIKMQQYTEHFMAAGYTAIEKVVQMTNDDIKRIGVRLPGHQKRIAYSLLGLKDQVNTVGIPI

T1 sequence (Q03145 26-538 limits assumed): as the sequence (Q03145 26-538 limits assumed) above
T2 sequence (P00533 25-1210): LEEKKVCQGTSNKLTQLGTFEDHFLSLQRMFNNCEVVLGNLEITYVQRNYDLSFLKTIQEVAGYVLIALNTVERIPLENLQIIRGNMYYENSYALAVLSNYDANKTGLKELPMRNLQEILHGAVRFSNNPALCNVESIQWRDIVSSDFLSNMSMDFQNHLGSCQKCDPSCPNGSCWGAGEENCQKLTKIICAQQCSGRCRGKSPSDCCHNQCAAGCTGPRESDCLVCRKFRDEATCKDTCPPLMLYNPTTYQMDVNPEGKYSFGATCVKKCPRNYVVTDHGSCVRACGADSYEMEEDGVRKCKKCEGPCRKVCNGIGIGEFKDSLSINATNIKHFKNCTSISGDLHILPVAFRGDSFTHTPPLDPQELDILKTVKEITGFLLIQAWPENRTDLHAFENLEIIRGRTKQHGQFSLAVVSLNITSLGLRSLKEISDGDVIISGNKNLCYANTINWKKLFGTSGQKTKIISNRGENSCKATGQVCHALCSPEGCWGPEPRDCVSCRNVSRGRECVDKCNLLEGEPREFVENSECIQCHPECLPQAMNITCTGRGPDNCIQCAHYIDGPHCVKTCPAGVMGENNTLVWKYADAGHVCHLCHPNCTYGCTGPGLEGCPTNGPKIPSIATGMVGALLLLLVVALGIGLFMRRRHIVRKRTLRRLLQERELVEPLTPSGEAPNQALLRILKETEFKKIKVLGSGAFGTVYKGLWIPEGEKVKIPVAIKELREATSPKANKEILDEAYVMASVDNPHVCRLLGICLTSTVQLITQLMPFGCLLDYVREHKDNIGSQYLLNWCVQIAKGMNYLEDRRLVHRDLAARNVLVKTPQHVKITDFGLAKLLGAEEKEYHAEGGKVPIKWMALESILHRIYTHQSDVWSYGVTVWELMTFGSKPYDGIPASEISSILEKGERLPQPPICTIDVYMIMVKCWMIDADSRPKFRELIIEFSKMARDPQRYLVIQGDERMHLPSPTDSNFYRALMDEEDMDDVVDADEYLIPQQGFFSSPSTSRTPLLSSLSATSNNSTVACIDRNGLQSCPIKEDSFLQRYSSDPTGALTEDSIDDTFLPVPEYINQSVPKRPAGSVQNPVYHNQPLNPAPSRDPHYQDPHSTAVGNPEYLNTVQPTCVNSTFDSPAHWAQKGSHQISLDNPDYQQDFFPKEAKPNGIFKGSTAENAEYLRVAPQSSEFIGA

On to `C[C@H](CCC(=O)O)[C@H]1CC[C@H]2[C@@H]3CC[C@@H]4C[C@H](O)CC[C@]4(C)[C@H]3CC[C@]12C` [Compound 1, (3α,5β)-3-hydroxycholan-24-oic acid], for which, in test [1], the “Effect on insulin-like growth factor receptor 1” value was “lack of effects”. The Ki in test [2] was 49 ± 3 µM. Besides, the “Effect on EGF receptor” value at EGF receptor [3] is listed as “lack of effects”. In the test on insulin receptor, the “Effect on insulin receptor” value was “lack of effects”. Further, the “Effect on VEGF receptor” value in the test on VEGF receptor is listed as “lack of effects”.
Take `C[C@H](CCC(=O)O)[C@H]1CC[C@H]2[C@@H]3[C@H](O)C[C@@H]4C[C@H](O)CC[C@]4(C)[C@H]3C[C@H](O)[C@]12C` [Compound 2, cholic acid]: in test [4], the Ki is over 200 µM and the “Activity in EphA2-ephrin-A1 binding assay, in words” value (from here on “Activity … in words”) is “inactive”.
Consider `C[C@H](CCC(=O)O)[C@H]1CC[C@H]2[C@@H]3CC[C@@H]4C[C@H](O)CC[C@]4(C)[C@H]3C[C@H](O)[C@]12C` [Compound 3, deoxycholic acid], for which, in test [4], the Ki was over 200 µM and the “Activity … in words” value is “inactive”.
`C[C@H](CCC(=O)O)[C@H]1CC[C@H]2[C@@H]3[C@H](O)C[C@@H]4C[C@H](O)CC[C@]4(C)[C@H]3CC[C@]12C` [Compound 4, chenodeoxycholic acid]: in test [4], the inhibition constant Ki is over 200 µM and the “Activity … in words” value was “inactive”.
The compound `C[C@H](CCC(=O)O)[C@H]1CC[C@H]2[C@@H]3CC[C@@H]4C[C@@H](O)CC[C@]4(C)[C@H]3CC[C@]12C` [Compound 10, (3β,5β)-3-hydroxycholan-24-oic acid] returned an IC50 in test [4] of 67 µM. The compound also had a Schild plot slope in [4] (listed as isolithocholic) of 0.96 ± 007.
On to `C[C@H](CCC(=O)O)[C@H]1CC[C@H]2[C@@H]3CC[C@@H]4C[C@@H](S(=O)(=O)O)CC[C@]4(C)[C@H]3CC[C@]12C` [Compound 11, (3β,5β)-3-sulfocholan-24-oic acid], for which, in test [4], the Ki is over 200 µM and the “Activity … in words” value was “inactive”.
With `C[C@H](CCC(=O)O)[C@H]1CC[C@H]2[C@@H]3CC[C@@H]4CCCC[C@]4(C)[C@H]3CC[C@]12C` [Compound 12, (5β)-cholan-24-oic acid], the Kd on EphA2 receptor [5] (KD from steady state analysis, steady state affinity) is 1.16 µM; on EphA2 receptor [5] (affinity constant (KD) from kinetic analysis, koff/kon), 8.45 µM. On EphA2 receptor [5] (read-out: association rate (kon)), the kon is 44000 M⁻¹ s⁻¹. For the same compound, the koff at EphA2 receptor [5] (read-out: dissociation rate (koff)) was found to be 0.369 s⁻¹. Moreover, the “Stimulation of EphB4 tyrosine phosphorylation by compound on its own” value at EphB4 receptor is recorded as “did not stimulate”. For the same compound, the “Effect on EGF receptor activation induced by EGF” value at EGF receptor [6] is reported as “did not interfere”. The “Selectivity between Eph receptor subfamilies, in words” value in test [7] is on record as “more selective for the EphA receptor subfamily”. Besides, the “Effect on EphA2 kinase activity” value in test [8] is “did not affect”. Moreover, the “Stimulation of EphA2 tyrosine phosphorylation by compound on its own” value on EphA2 receptor [9] is recorded as “did not stimulate”. In [4], affinity was put at a Ki of 5.1 ± 1.4 µM. The Schild plot slope in test [4] (listed as cholanic acid) came out at 0.98 ± 002.
Take `COC(=O)CC[C@@H](C)[C@H]1CC[C@H]2[C@@H]3CC[C@@H]4C[C@H](O)CC[C@]4(C)[C@H]3CC[C@]12C` [Compound 13, methyl (3α,5β)-3-hydroxycholan-24-oate]: in test [4], the Ki was over 200 µM and the “Activity … in words” value is “inactive or weakly active”.
On to `C[C@H](CCC(=O)NO)[C@H]1CC[C@H]2[C@@H]3CC[C@@H]4C[C@H](O)CC[C@]4(C)[C@H]3CC[C@]12C` [Compound 14, (3α,5β)-3-Hydroxycholan-24-hydroxamic acid], for which, in test [4], the Ki was over 200 µM and the “Activity … in words” value is “inactive or weakly active”.
Turning to `C[C@H](CCC(=O)NN)[C@H]1CC[C@H]2[C@@H]3CC[C@@H]4C[C@H](O)CC[C@]4(C)[C@H]3CC[C@]12C` [Compound 15, (3α,5β)-3-Hydroxycholan-24-hydrazide], in test [4], the Ki is over 200 µM and the “Activity … in words” value is “inactive or weakly active”.
Turning to `C[C@H](CCCO)[C@H]1CC[C@H]2[C@@H]3CC[C@@H]4C[C@H](O)CC[C@]4(C)[C@H]3CC[C@]12C` [Compound 16, (3α,5β)-Cholan-3,24-diol], in test [4], the affinity, expressed as Ki, was 186 ± 27 µM and the “Activity … in words” value was “inactive or weakly active”.

The term Ki denotes the dissociation constant of the complex between target and ligand, obtained from inhibition or displacement. The term IC50 denotes the midpoint of a concentration-inhibition curve. Low readings indicate inhibition by little substance, high ones a need for much substance. By Kd is commonly meant the concentration at which binding is half-saturated. High values mean weaker binding, low ones tighter binding. As a reminder, the kon is a measure of how fast the partners come together. The koff is the rate constant with which the complex falls apart.
